What was measured:
[1] = target: T1, murine TLR9 (Mus musculus, UniProt Q9EQU3); assay: TLR9 signaling induction, NFκB-luciferase reporter in HEK 293 cells stably transfected with murine TLR9; type: cell-based; conditions: 16 h, HEK 293 murine TLR9 NFκB-luciferase
T1 construct: expressed in transfected cells; host or cells: HEK 293 cells, stably transfected, also carrying a six-fold NFκB-luciferase reporter plasmid
T1 sequence (Q9EQU3 26-1032): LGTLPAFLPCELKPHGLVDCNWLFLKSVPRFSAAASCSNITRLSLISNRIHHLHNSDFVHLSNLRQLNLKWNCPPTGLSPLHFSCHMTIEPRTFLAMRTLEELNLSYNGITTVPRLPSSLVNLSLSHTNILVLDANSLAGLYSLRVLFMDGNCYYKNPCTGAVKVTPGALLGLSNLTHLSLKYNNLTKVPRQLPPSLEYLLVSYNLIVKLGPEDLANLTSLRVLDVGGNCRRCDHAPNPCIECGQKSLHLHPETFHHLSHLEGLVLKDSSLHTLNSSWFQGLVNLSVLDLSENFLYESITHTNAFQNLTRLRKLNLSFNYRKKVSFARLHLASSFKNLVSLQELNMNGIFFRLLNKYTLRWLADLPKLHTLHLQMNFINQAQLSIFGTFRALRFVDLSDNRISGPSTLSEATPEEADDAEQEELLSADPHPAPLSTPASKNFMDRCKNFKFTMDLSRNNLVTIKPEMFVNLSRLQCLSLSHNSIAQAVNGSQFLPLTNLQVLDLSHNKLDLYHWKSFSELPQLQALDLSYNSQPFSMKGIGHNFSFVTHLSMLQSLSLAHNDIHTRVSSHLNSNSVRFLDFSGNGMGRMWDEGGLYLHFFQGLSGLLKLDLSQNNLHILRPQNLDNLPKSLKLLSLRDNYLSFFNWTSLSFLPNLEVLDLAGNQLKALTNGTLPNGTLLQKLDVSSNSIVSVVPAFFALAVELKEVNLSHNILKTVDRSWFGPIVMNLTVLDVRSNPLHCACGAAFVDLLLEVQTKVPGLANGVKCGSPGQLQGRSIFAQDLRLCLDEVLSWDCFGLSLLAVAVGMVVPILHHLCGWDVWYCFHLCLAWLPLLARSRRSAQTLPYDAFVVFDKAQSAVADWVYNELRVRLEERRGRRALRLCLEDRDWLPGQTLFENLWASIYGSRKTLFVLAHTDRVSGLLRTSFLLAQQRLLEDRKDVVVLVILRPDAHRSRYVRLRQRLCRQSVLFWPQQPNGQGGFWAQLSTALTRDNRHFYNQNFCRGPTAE
Description: FIG. 2 is a graph depicting fold induction of TLR9 signaling in vitro, as measured using 293 cells stably transformed with murine TLR9 and a NF-κB-luciferase reporter construct, following 16 hour incubation with indicated concentrations of hexamer CpG motif GACGTT alone (20321), CpG motif GACGTT in the context of a 20-mer CpG-ODN(ODN 5890; SEQ ID NO:5), or CpG motif GACGTT in the context of flanking abasic sequences in 20-mer 20307 (poly-D) or in 20-mer 20566 (poly-C3 spacer). EC50 values are shown in the graph legend.
Following published methods, HEK 293 cells were stably transfected with a murine TLR9 expression vector and a six-fold NFκB-luciferase reporter plasmid. Cells were plated on 96-well plates at 1.5×10^4 cells/well and allowed to attach overnight. The cells were then treated for sixteen hours with individual test compounds listed below at concentrations ranging between 10^−9 M and 10^−5 M.
Test agents were as follows: ODN 20321 (GACGTT); ODN 5890 (SEQ ID NO:5); 20307 ([…], where each D represents an abasic deoxyribonucleotide unit); and 20566 (JJJJJGACGTTJJJJJJJJJ, where each J represents a C3 spacer derived from propane-1,3-diol).
Each data point was done in duplicate. After 16 h stimulation the supernatant was removed and the cells were treated with lysis buffer and stored at −80° C. until luciferase measurement. Values are given as fold NFκB activation compared with non-stimulated cells.

[2] = test system: RAW 264.7 murine macrophage cell line; assay: In vitro uptake of Cy3-labeled oligomers by RAW 264.7 cells (FACS mean fluorescence); type: cell-based; conditions: Cy3-labeled 20-mer, 0.5 to 5.0 μM, 1 hr at 37° C.
Description: FIG. 1 is a bar graph depicting uptake by RAW 264.7 cells of Cy3-labeled 20-mer abasic oligonucleotides (poly-D or poly-C3) and of 20-mer ODN 5890 (SEQ ID NO:5). No data is shown for poly-C3 at 4.0 or 5.0 μM.
The 20-mer ODN 5890 ([…]; SEQ ID NO:5), a 20-mer poly-abasic (i.e., poly-D) or a 20-mer poly-C3 were synthesized with a fluorescence tag Cy3. The murine macrophage cell line, RAW 264.7 (American Type Culture Collection, Manassas, Va.), was incubated with various concentrations of test oligomer (0.5 to 5.0 μM) for 1 hr at 37° C. The cells were then washed and FACS analyzed for oligomer uptake by monitoring mean fluorescence. […] No data is shown for poly-C3 at concentrations of 4.0 or 5.0 μM.

Sequence: DDDDDGACGTTDDDDDDDDD [compound 20307]
- TLR9 signaling compared with hexamer CpG motif alone (20321), in words [1]: induced significantly more TLR9 signaling

Sequence: JJJJJGACGTTJJJJJJJJJ [compound 20566]
- TLR9 signaling compared with hexamer CpG motif alone (20321), in words [1]: induced significantly more TLR9 signaling

Sequence: TCCATGACGTTTTTGATGTT (Cy3 fluorescent tag attached, position not given here) [ODN 5890, Cy3-tagged in the uptake test]
- TLR9 signaling compared with hexamer CpG motif alone (20321), in words [1]: induced significantly more TLR9 signaling
- oligomer uptake (comparison in words) [2]: up taken to a greater extent than either abasic oligonucleotide

From patent US20080113929A1, “Abasic Oligonucleotide as Carrier Platform for Antigen and Immunostimulatory Agonist and Antagonist” (Coley Pharmaceutical GmbH, priority 2004, published 2008)
